Measured values reported in US20240067693A1, “POLYPEPTIDES AND USES THEREOF” (MEDIMMUNE LIMITED, priority 2020, published 2024).
Numbered stars: 1 amine (or outer) side, 2 acyl side, 3 side chain; on linkers, the order of the positions; unused ones are H or OH. Bridge positions count the residues as written; N and C are the ends. Square brackets hold non-standard residues; d marks the D form. Side chains are listed from the residue outwards. Peptide text beside a SMILES is read from it. * marks the point of attachment. C18 diacid = O=C(O)CCCCCCCCCCCCCCCCC(=O)*; γGlu = O=C(O)[C@H](CCC(=O)[*:2])N[*:1]; αMeF = C[C@](N)(Cc1ccccc1)C(=O)O; Dab = NCC[C@H](N)C(=O)O; Aib = CC(C)(N)C(=O)O

Assays:
[1] = target: T1, rat calcitonin receptor (rat CTR) (Rattus norvegicus, UniProt P32214); assay: cAMP production in HEK cells with stable recombinant expression of rat calcitonin receptor (rat CTR); format: cell-based; details: assay buffer with 0.1% BSA
T1 construct: expressed in transfected cells
T1 sequence (P32214 25-516): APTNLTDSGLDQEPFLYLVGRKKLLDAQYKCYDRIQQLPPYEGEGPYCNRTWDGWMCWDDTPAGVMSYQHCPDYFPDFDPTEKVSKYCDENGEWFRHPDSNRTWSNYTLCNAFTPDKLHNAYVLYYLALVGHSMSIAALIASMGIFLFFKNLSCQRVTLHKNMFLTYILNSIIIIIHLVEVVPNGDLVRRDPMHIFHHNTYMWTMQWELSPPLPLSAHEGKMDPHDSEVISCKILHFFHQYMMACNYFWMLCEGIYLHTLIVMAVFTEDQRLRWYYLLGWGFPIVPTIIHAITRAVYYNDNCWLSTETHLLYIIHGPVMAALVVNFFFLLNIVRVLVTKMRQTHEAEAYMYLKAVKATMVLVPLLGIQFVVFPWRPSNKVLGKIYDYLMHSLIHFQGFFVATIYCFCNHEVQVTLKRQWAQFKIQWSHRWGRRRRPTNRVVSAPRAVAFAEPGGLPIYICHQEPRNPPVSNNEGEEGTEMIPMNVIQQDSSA
Procedure, shortened: (§1)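 EC50 values come from 4-parameter logistic fits of HTRF cAMP signal, normalised to maximal calcitonin or amylin effect. Peptides were tested in duplicate for 30 min at RT in IBMX-containing (0.5 mM) BSA/HEPES buffer pH 7.4 on stable 1321N1 (human CTR, AMYR3) or HEK (rat CTR, AMYR3) lines.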

[2] = target: T2, human calcitonin receptor (hCTR) (Homo sapiens, UniProt P30988); assay: cAMP production in 1321N1 cells with stable recombinant expression of human calcitonin receptor (hCTR); format: cell-based; details: cAMP, 1321N1 cells, assay buffer with 0.1% BSA; read-out: EC50 (pM) hCTR
T2 construct: expressed in transfected cells
T2 sequence (P30988 25-474): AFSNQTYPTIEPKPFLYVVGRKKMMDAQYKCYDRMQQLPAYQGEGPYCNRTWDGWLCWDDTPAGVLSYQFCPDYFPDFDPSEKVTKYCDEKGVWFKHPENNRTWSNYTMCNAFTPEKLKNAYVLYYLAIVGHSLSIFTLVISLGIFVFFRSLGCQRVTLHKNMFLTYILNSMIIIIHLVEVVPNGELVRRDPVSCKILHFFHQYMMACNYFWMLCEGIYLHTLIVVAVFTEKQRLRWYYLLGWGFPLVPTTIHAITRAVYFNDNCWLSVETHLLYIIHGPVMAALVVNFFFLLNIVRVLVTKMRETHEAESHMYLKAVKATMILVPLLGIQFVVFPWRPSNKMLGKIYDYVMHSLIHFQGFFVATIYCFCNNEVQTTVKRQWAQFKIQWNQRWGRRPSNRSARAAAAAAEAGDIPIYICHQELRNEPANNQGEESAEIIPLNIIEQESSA
Procedure, shortened: as §1

[3] = Thioflavin T fibrillation assay; format: physicochemical; details: for Time taken to detect increase in fluorescence intensity: ThT fibrillation assay, peptide 1 mg/mL in 25 mM sodium acetate buffer pH 4.0, 6 days at 37 °C with shaking, >144 h = no increase
Procedure, shortened: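 Peptides at 1 mg/mL in 25 mM sodium acetate pH 4.0 with ThT (from 0.25 mM stock), incubated 6 days at 37 °C with intermittent orbital shaking at 500–750 rpm. Fluorescence (ex 444/em 480 nm) read every 30 min; value is average time to a rise in baseline-corrected signal.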

in vivo = details: male, Sprague-Dawley, rat, 20 nmol/kg

| SMILES | EC50 [1] [pM] | EC50 [2] [pM] | fibril-forming tendency ([3]; ThT assay, 1 mg/mL, pH 4.0, 37 °C, compared to pramlintide) | Time taken to detect increase in fluorescence intensity [3] [h] | half-life (in vivo; iv) [min] | half-life (in vivo; sc) [min] |
| --- | --- | --- | --- | --- | --- | --- |
| CC[C@H](C)[C@H](NC(=O)[C@H](C)NC(=O)[C@@H]1CCCN1C(=O)[C@H](Cc1ccccc1)NC(=O)[C@H](CC(N)=O)NC(=O)[C@H](CCN)NC(=O)[C@H](CO)NC(=O)[C@H](CO)NC(=O)[C@H](Cc1c[nH]cn1)NC(=O)[C@@H](NC(=O)[C@H](CC(C)C)NC(=O)[C@H](Cc1ccccc1)NC(=O)[C@H](CC(N)=O)NC(=O)[C@H](C)NC(=O)[C@H](CC(C)C)NC(=O)[C@H](CCCNC(=N)N)NC(=O)[C@H](CCC(N)=O)NC(=O)[C@@H](NC(=O)[C@H](C)NC(=O)[C@@H]1CSSC[C@H](NC(=O)[C@@H](N)CCCCNC(=O)CC[C@H](NC(=O)CC[C@H](NC(=O)CCCCCCCCCCCCCCCCC(=O)O)C(=O)O)C(=O)O)C(=O)N[C@@H](CC(N)=O)C(=O)N[C@@H]([C@@H](C)O)C(=O)N[C@@H](C)C(=O)N[C@@H]([C@@H](C)O)C(=O)N1)[C@@H](C)O)C(C)C)C(=O)N[C@@H](CC(C)C)C(=O)N[C@@H](CO)C(=O)N1CCC[C@H]1C(=O)N[C@H](C(=O)N[C@@H](CC(N)=O)C(=O)N[C@H](C(=O)NCC(=O)N[C@@H](CO)C(=O)N[C@@H](CC(N)=O)C(=O)N[C@H](C(=O)N[C@@H](Cc1ccc(O)cc1)C(N)=O)[C@@H](C)O)C(C)C)[C@@H](C)O [Peptide 8, K(γE-γE-C18diacid)[CNTATC]ATQRLANFLVHSS(Dab)NFPAILSPTNVGSNTY-amide] (H-K([γGlu-γGlu-C18 diacid])CNTATCATQRLANFLVHSS[Dab]NFPAILSPTNVGSNTY-NH2; disulfide 2-7) | 19900 | 20200 | – | 7 | 252 | 372 |
| CC[C@H](C)[C@H](NC(=O)[C@H](C)NC(=O)[C@@H]1CCCN1C(=O)[C@H](Cc1ccccc1)NC(=O)[C@H](CC(N)=O)NC(=O)C(C)(C)NC(=O)[C@H](CO)NC(=O)[C@H](CO)NC(=O)[C@H](Cc1c[nH]cn1)NC(=O)[C@@H](NC(=O)[C@H](CC(C)C)NC(=O)[C@H](Cc1ccccc1)NC(=O)[C@H](CC(N)=O)NC(=O)[C@H](C)NC(=O)[C@H](CC(C)C)NC(=O)[C@H](CCCNC(=N)N)NC(=O)[C@H](CCC(N)=O)NC(=O)[C@@H](NC(=O)[C@H](C)NC(=O)[C@@H]1CSSC[C@H](NC(=O)[C@@H](N)CCCCNC(=O)CC[C@H](NC(=O)CC[C@H](NC(=O)CCCCCCCCCCCCCCCCC(=O)O)C(=O)O)C(=O)O)C(=O)N[C@@H](CC(N)=O)C(=O)N[C@@H]([C@@H](C)O)C(=O)N[C@@H](C)C(=O)N[C@@H]([C@@H](C)O)C(=O)N1)[C@@H](C)O)C(C)C)C(=O)N[C@@H](CC(C)C)C(=O)N[C@@H](CO)C(=O)N1CCC[C@H]1C(=O)N[C@H](C(=O)N[C@@H](CC(N)=O)C(=O)N[C@H](C(=O)NCC(=O)N[C@@H](CO)C(=O)N[C@@H](CC(N)=O)C(=O)N[C@H](C(=O)N[C@@H](Cc1ccc(O)cc1)C(N)=O)[C@@H](C)O)C(C)C)[C@@H](C)O [Peptide 9, K(γE-γE-C18diacid)[CNTATC]ATQRLANFLVHSS(Aib)NFPAILSPTNVGSNTY-amide] (H-K([γGlu-γGlu-C18 diacid])CNTATCATQRLANFLVHSS[Aib]NFPAILSPTNVGSNTY-NH2; disulfide 2-7) | 9720 | 13500 | – | 7 | 354 | 468 |

Stronger by EC50 [1], values ahead:

| EC50 [1] [pM] | EC50 [2] [pM] | fibril-forming tendency ([3]; ThT assay, 1 mg/mL, pH 4.0, 37 °C, compared to pramlintide) | Time taken to detect increase in fluorescence intensity [3] [h] | half-life (in vivo; iv) [min] | half-life (in vivo; sc) [min] | SMILES |
| --- | --- | --- | --- | --- | --- | --- |
| 782 | 3330 | – | >144 | 444 | 486 | CC[C@H](C)[C@H](NC(=O)[C@@H]1CCCN1C(=O)CNC(=O)[C@H](Cc1ccccc1)NC(=O)[C@H](CC(N)=O)NC(=O)C(C)(C)NC(=O)[C@H](CO)NC(=O)[C@H](CO)NC(=O)[C@H](Cc1c[nH]cn1)NC(=O)[C@@H](NC(=O)[C@H](CC(C)C)NC(=O)[C@H](Cc1ccccc1)NC(=O)[C@H](CC(N)=O)NC(=O)[C@H](C)NC(=O)[C@H](CC(C)C)NC(=O)[C@H](CCCNC(=N)N)NC(=O)[C@H](CCC(N)=O)NC(=O)[C@@H](NC(=O)[C@H](C)NC(=O)[C@@H]1CSSC[C@H](NC(=O)[C@H](CCCCN)NC(=O)[C@@H](N)CCCCNC(=O)CC[C@H](NC(=O)CCCCCCCCCCCCCCCCC(=O)O)C(=O)O)C(=O)N[C@@H](CC(N)=O)C(=O)N[C@@H]([C@@H](C)O)C(=O)N[C@@H](C)C(=O)N[C@@H]([C@@H](C)O)C(=O)N1)[C@@H](C)O)C(C)C)C(=O)N[C@@H](CC(C)C)C(=O)N1CCC[C@H]1C(=O)N1CCC[C@H]1C(=O)N[C@H](C(=O)N[C@@H](Cc1c[nH]cn1)C(=O)N[C@H](C(=O)NCC(=O)N[C@@H](CO)C(=O)N[C@@H](CC(N)=O)C(=O)N[C@H](C(=O)N[C@@H](Cc1ccc(O)cc1)C(N)=O)[C@@H](C)O)C(C)C)[C@@H](C)O [Peptide 40, K(γE-C18diacid)K[CNTATC]ATQRLANFLVHSS(Aib)NFGPILPPTHVGSNTY-amide] (H-K([γGlu-C18 diacid])KCNTATCATQRLANFLVHSS[Aib]NFGPILPPTHVGSNTY-NH2; disulfide 3-8) |
| 755 | 1860 | – | >144 | 564 | 630 | CC[C@H](C)[C@H](NC(=O)[C@@H]1CCCN1C(=O)CNC(=O)[C@](C)(Cc1ccccc1)NC(=O)[C@H](CC(N)=O)NC(=O)[C@H](CC(N)=O)NC(=O)[C@H](CO)NC(=O)[C@H](CO)NC(=O)[C@H](Cc1c[nH]cn1)NC(=O)[C@@H](NC(=O)[C@H](CC(C)C)NC(=O)[C@H](Cc1ccccc1)NC(=O)[C@H](CC(N)=O)NC(=O)[C@H](C)NC(=O)[C@H](CC(C)C)NC(=O)[C@H](CCCNC(=N)N)NC(=O)[C@H](CCC(N)=O)NC(=O)[C@@H](NC(=O)[C@H](C)NC(=O)[C@@H]1CSSC[C@H](NC(=O)[C@@H](N)CCCCNC(=O)CC[C@H](NC(=O)CC[C@H](NC(=O)CCCCCCCCCCCCCCCCC(=O)O)C(=O)O)C(=O)O)C(=O)N[C@@H](CC(N)=O)C(=O)N[C@@H]([C@@H](C)O)C(=O)N[C@@H](C)C(=O)N[C@@H]([C@@H](C)O)C(=O)N1)[C@@H](C)O)C(C)C)C(=O)N[C@@H](CC(C)C)C(=O)N1CCC[C@H]1C(=O)N1CCC[C@H]1C(=O)N[C@H](C(=O)N[C@@H](CCCNC(=N)N)C(=O)N[C@H](C(=O)NCC(=O)N[C@@H](CO)C(=O)N[C@@H](CC(N)=O)C(=O)N[C@H](C(=O)N[C@@H](Cc1ccc(O)cc1)C(N)=O)[C@@H](C)O)C(C)C)[C@@H](C)O [Peptide 24, K(γE-γE-C18diacid)[CNTATC]ATQRLANFLVHSSNN(αMePhe)GPILPPTRVGSNTY-amide] (H-K([γGlu-γGlu-C18 diacid])CNTATCATQRLANFLVHSSNN[αMeF]GPILPPTRVGSNTY-NH2; disulfide 2-7; N-terminus assumed) |
| 186 | 1350 | increases the fibril-forming tendency | <5 | 840 | – | CC[C@H](C)[C@H](NC(=O)[C@@H]1CCCN1C(=O)CNC(=O)[C@H](Cc1ccccc1)NC(=O)[C@H](CC(N)=O)NC(=O)[C@H](CC(N)=O)NC(=O)[C@H](CO)NC(=O)[C@H](CO)NC(=O)[C@H](Cc1c[nH]cn1)NC(=O)[C@@H](NC(=O)[C@H](CC(C)C)NC(=O)[C@H](Cc1ccccc1)NC(=O)[C@H](CC(N)=O)NC(=O)[C@H](C)NC(=O)[C@H](CC(C)C)NC(=O)[C@H](CCCNC(=N)N)NC(=O)[C@H](CCC(N)=O)NC(=O)[C@@H](NC(=O)[C@H](C)NC(=O)[C@@H]1CSSC[C@H](NC(=O)[C@H](CCCCN)NC(=O)CC[C@H](NC(=O)CCCCCCCCCCCCCCCCC(=O)O)C(=O)O)C(=O)N[C@@H](CC(N)=O)C(=O)N[C@@H]([C@@H](C)O)C(=O)N[C@@H](C)C(=O)N[C@@H]([C@@H](C)O)C(=O)N1)[C@@H](C)O)C(C)C)C(=O)N[C@@H](CC(C)C)C(=O)N1CCC[C@H]1C(=O)N1CCC[C@H]1C(=O)N[C@H](C(=O)N[C@@H](CC(N)=O)C(=O)N[C@H](C(=O)NCC(=O)N[C@@H](CO)C(=O)N[C@@H](CC(N)=O)C(=O)N[C@H](C(=O)N[C@@H](Cc1ccc(O)cc1)C(N)=O)[C@@H](C)O)C(C)C)[C@@H](C)O [Peptide 3] ({C18 diacid-γGlu}-KCNTATCATQRLANFLVHSSNNFGPILPPTNVGSNTY-NH2; disulfide 2-7) |
